We go through 27 molecules from ChEMBL document CHEMBL5537113, “Discovery of 1,2-diaryl-3-oxopyrazolidin-4-carboxamides as a new class of MurA enzyme inhibitors and characterization of their antibacterial activity” (Eur J Med Chem, 2023).

Calls of active or inactive are those of the source. No cut-off for these calls is given here.

Series [1] addresses UDP-N-acetylglucosamine 1-carboxyvinyltransferase (Escherichia coli K-12) (UniProt P0A749). The series is described as follows: Inhibition of Escherichia coli K12 His-tagged MurA expressed in Escherichia coli BL21 cells at 50 uM using UNAG as substrate pre incubated for 15 mins followed by substrate addition and measured after 15 mins by microplate reader analysis relative to control. The conditions noted are these: time 30.0 min.

The test system of another series is Escherichia coli. The series is described as follows: Antibacterial activity against Escherichia coli harboring tolC deletion mutant assessed as reduction in microbial growth incubated for 16 hrs by serial dilution method. In kind it is functional.
Series [2] concerns Staphylococcus aureus. The series can be described thus: Antibacterial activity against Staphylococcus aureus Newman D2C NCTC 10833 assessed as reduction in microbial growth incubated for 16 hrs by serial dilution method. In kind it is functional.
The target in series [3] is UDP-N-acetylglucosamine 1-carboxyvinyltransferase (Escherichia coli K-12, UniProt P0A749). The series is described as follows: Inhibition of Escherichia coli K12 His-tagged MurA expressed in Escherichia coli BL21 cells using UNAG as substrate pre incubated for 15 mins followed by substrate addition and measured after 15 mins by microplate reader analysis.
Sequence of UDP-N-acetylglucosamine 1-carboxyvinyltransferase (P0A749 whole entry): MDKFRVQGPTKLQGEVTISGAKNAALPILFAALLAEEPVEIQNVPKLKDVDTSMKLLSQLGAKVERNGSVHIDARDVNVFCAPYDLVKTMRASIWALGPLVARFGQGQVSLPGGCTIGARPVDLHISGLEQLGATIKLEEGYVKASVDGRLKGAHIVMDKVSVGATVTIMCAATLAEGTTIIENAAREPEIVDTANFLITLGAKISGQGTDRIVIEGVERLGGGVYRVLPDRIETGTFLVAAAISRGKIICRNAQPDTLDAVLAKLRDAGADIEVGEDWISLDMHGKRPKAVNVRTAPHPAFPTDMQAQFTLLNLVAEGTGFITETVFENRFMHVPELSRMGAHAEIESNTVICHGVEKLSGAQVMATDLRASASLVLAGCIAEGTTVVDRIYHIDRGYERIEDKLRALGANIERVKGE
Another series concerns Clostridioides difficile. The series can be described thus: Antibacterial activity against Clostridioides difficile ATCC BAA1870 assessed as reduction in microbial growth incubated for 48 hrs by broth microdilution method. In kind it is functional. In general terms: Broth dilution looks for growth in wells or tubes with falling amounts of substance.
Series [4] concerns Staphylococcus aureus. The series can be described thus: Antibacterial activity against vancomycin resistant Staphylococcus aureus 10 assessed as reduction in microbial growth by CLSI based broth microdilution method. In kind it is functional.
Series [5] concerns Staphylococcus aureus. The series is described as follows: Antibacterial activity against methicillin sensitive Staphylococcus aureus NRS107 assessed as reduction in microbial growth by CLSI based broth microdilution method. In kind it is functional.
The test system of series [6] is Staphylococcus aureus. The series can be described thus: Antibacterial activity against methicillin resistant Staphylococcus aureus NRS119 assessed as reduction in microbial growth by CLSI based broth microdilution method. The format is functional.
In series [7] the test system is Staphylococcus aureus. The series is described as follows: Antibacterial activity against methicillin resistant Staphylococcus aureus USA300 assessed as reduction in microbial growth by CLSI based broth microdilution method. In kind it is functional.
The nature of series [8]: Drug uptake in Escherichia coli harboring tolC deletion mutant assessed per 1.6x10^9 cells at 10 uM incubated for 30 mins by LC analysis. The format is ADME. The conditions noted are these: 0.5 h.
Series [9] is described as follows: Drug uptake in Escherichia coli harboring tolC deletion mutant at 10 uM incubated for 30 mins by LC analysis. The conditions noted are these: 0.5 h. The format is ADME.

Sequence of UDP-N-acetylglucosamine 1-carboxyvinyltransferase (Escherichia coli K-12) (P0A749 whole entry): as above

As to `O=C(NCc1ccco1)C1CN(c2cccc(Cl)c2)N(c2cccc(Cl)c2)C1=O` (stereo not given), in [1], the inhibition – broadly, how much of the control response was suppressed – is 34%. In addition, the minimal inhibitory concentration (MIC) in the series with Escherichia coli and with Staphylococcus aureus [2] was above 40 µM in each case.

The molecule `Cc1cnc(NC(=O)C2CN(c3cccc(Cl)c3)N(c3cccc(Cl)c3)C2=O)s1` (stereo not given) registered an inhibition in [1] of 59.6%. Further, it took 22 µM to reach half-maximal inhibition in series [3] (IC50). For the same molecule, the MIC – broadly, the lowest concentration that inhibits growth of the organism – in the series with Escherichia coli is 40 µM; in the series on Staphylococcus aureus [2], above 40 µM.

In series [1], `O=C(Nc1nc(C(F)(F)F)cs1)C1CN(c2cccc(Cl)c2)N(c2cccc(Cl)c2)C1=O` (stereo not given) had an inhibition of 59.2%. Moreover, the midpoint of inhibition in series [3], the IC50, lay at 38.6 µM. Also, the results for the MIC in the series on Escherichia coli and in the series with Staphylococcus aureus [2] were above 40 µM and 40 µM, respectively.

As for `O=C(NCc1ccccn1)C1CN(c2cccc(Cl)c2)N(c2cccc(Cl)c2)C1=O` (stereo not given), the inhibition result in series [1] was “inactive”. Further, the minimum inhibitory concentration (MIC) in the series with Escherichia coli and in the series with Staphylococcus aureus [2] was above 40 µM in each case.

Turning to `CC(=O)NC[C@H]1CN(c2ccc(N3CCOCC3)c(F)c2)C(=O)O1` [LINEZOLID], the MIC is 1 µg/mL in the series with Clostridioides difficile; 0.5 µg/mL with Staphylococcus aureus [4]; 0.5 µg/mL with Staphylococcus aureus [5]; 32 µg/mL with Staphylococcus aureus [6]; 1 µg/mL in the series on Staphylococcus aureus [7].

As for `Cc1csc(NC(=O)C2CN(c3cccc(Cl)c3)N(c3cccc(Cl)c3)C2=O)n1` (stereo not given), in series [1], the inhibition was found to be 60.2%. For the same molecule, the IC50 (as a rule, the concentration that gives 50% inhibition) in series [3] worked out at 39.3 µM. For the same molecule, the results for the MIC in the series with Escherichia coli and with Staphylococcus aureus [2] were 40 µM and above 40 µM, respectively.

`O=C(Nc1ccccn1)C1CN(c2cccc(Cl)c2)N(c2cccc(Cl)c2)C1=O` (stereo not given) showed an inhibition in [1] of 30.5%. Moreover, the MIC in the series on Escherichia coli and in the series on Staphylococcus aureus [2] was above 40 µM each time.

As to `N#Cc1ccc(NC(=O)C2CN(c3cccc(Cl)c3)N(c3cccc(Cl)c3)C2=O)cn1` (stereo not given), the inhibition in series [1] was found to be 32.2%. Further, the MIC with Escherichia coli and in the series with Staphylococcus aureus [2] was above 40 µM in each case.

`O=C(Nc1ccc2cn[nH]c2c1)C1CN(c2cccc(Cl)c2)N(c2cccc(Cl)c2)C1=O` (stereo not given) came in with an inhibition in series [1] of 65.2%. Also, the midpoint of inhibition in series [3], the IC50, lay at 35.4 µM. The values for the MIC in the series on Escherichia coli and in the series on Staphylococcus aureus [2] were 20 µM and above 40 µM, respectively.

In series [1], `CSc1nnc(NC(=O)C2CN(c3cccc(Cl)c3)N(c3cccc(Cl)c3)C2=O)s1` (stereo not given) gave an inhibition of 63.4%. Also, the midpoint of inhibition in series [3], the IC50, lay at 26.9 µM. The MIC is 38 µM in the series with Escherichia coli and above 40 µM in the series with Staphylococcus aureus [2].

`O=C(NCc1ccncc1)C1CN(c2cccc(Cl)c2)N(c2cccc(Cl)c2)C1=O` (stereo not given): in [1], the inhibition result was “inactive”. In addition, the MIC in the series on Escherichia coli and in the series with Staphylococcus aureus [2] was above 40 µM each time.

`O=C(Nc1ccc2[nH]ncc2c1)C1CN(c2cccc(Cl)c2)N(c2cccc(Cl)c2)C1=O` (stereo not given) registered an inhibition in series [1] of 59.5%. The same molecule had an IC50 in [3] of 44.1 µM. The MIC in the series on Escherichia coli is 23 µM; in the series with Staphylococcus aureus [2], above 40 µM.

As for `O=C1SCCC1NC(=O)C1CN(c2ccccc2)N(c2ccccc2)C1=O` (stereo not given), the inhibition entry in series [1] is “inactive”. Also, the MIC in the series on Escherichia coli and in the series with Staphylococcus aureus [2] was above 40 µM in each case.

`O=C(Nc1ncc(Cl)s1)C1CN(c2cccc(Cl)c2)N(c2cccc(Cl)c2)C1=O` (stereo not given): the inhibition in series [1] is 67.7%. In addition, in series [3], the midpoint of inhibition, the IC50, lay at 24 µM. In addition, the MIC with Escherichia coli and in the series with Staphylococcus aureus [2] was above 40 µM throughout.

In the case of `CN1C(=O)C(C(=O)NC2CCSC2=O)CN1c1cccc(Cl)c1` (stereo not given), the inhibition entry in [1] is “inactive”. The MIC in the series on Escherichia coli and in the series on Staphylococcus aureus [2] was above 40 µM throughout.

As to `O=C(Nc1nc2ccccc2s1)C1CN(c2cccc(Cl)c2)N(c2cccc(Cl)c2)C1=O` (stereo not given), the Drug uptake is 19 µM in [8] and 573 nM in series [9]. This molecule registered an inhibition in series [1] of 65.2%. The IC50 in series [3] worked out at 18 µM. In addition, the minimal inhibitory concentration (MIC) with Escherichia coli and in the series on Staphylococcus aureus [2] was above 40 µM in each case.

For the molecule `O=C(NCc1cccnc1)C1CN(c2cccc(Cl)c2)N(c2cccc(Cl)c2)C1=O` (stereo not given), the inhibition in [1] was 11.8%. Besides, the MIC with Escherichia coli and in the series with Staphylococcus aureus [2] was above 40 µM each time.

Molecule `O=C(Nc1cccnc1)C1CN(c2cccc(Cl)c2)N(c2cccc(Cl)c2)C1=O` (stereo not given) came in with an inhibition in [1] of 8.7%. For the same molecule, the minimum inhibitory concentration (MIC) in the series with Escherichia coli was 38 µM; in the series with Staphylococcus aureus [2] it was above 40 µM.

Turning to `O=C(Nc1cccc(-c2cn[nH]c2)c1)C1CN(c2cccc(Cl)c2)N(c2cccc(Cl)c2)C1=O` (stereo not given), the inhibition in series [1] came to 60.4%. It took 31 µM to reach half-maximal inhibition in [3] (IC50). For the same molecule, the MIC with Escherichia coli and with Staphylococcus aureus [2] was above 40 µM throughout.

For the molecule `O=C(Nc1cncc(Cl)c1)C1CN(c2cccc(Cl)c2)N(c2cccc(Cl)c2)C1=O` (stereo not given), in [1], the inhibition came to 18.2%. For the same molecule, the MIC in the series on Escherichia coli and in the series on Staphylococcus aureus [2] was above 40 µM throughout.

As for `O=C(Nc1ccc2ncsc2c1)C1CN(c2cccc(Cl)c2)N(c2cccc(Cl)c2)C1=O` (stereo not given), in [1], the inhibition came out at 44.7%. The MIC with Escherichia coli and in the series with Staphylococcus aureus [2] was above 40 µM throughout.

For the molecule `N#Cc1cnc(NC(=O)C2CN(c3ccccc3)N(c3ccccc3)C2=O)s1` (stereo not given), the inhibition result in series [1] was “inactive”. The MIC with Escherichia coli and in the series on Staphylococcus aureus [2] was above 40 µM in each case.

The molecule `O=C(Nc1nccs1)C1CN(c2cccc(Cl)c2)N(c2cccc(Cl)c2)C1=O` (stereo not given) returned an inhibition in series [1] of 17.8%. Besides, the MIC in the series on Escherichia coli and in the series with Staphylococcus aureus [2] was above 40 µM throughout.

In series [1], `O=C(Nc1ccc2[nH]cnc2c1)C1CN(c2cccc(Cl)c2)N(c2cccc(Cl)c2)C1=O` (stereo not given) returned an inhibition of 74.2%. The molecule further came in with an IC50 in series [3] of 33.5 µM. Besides, the minimum inhibitory concentration (MIC) in the series on Escherichia coli was 18 µM; in the series on Staphylococcus aureus [2] it was above 40 µM.

Take `O=C1SCCC1NC(=O)C1CN(c2cccc(Cl)c2)N(c2cccc(Cl)c2)C1=O` (stereo not given): the inhibition in series [1] came out at 35%. Moreover, the minimum inhibitory concentration (MIC) with Escherichia coli worked out at 17 µM; with Staphylococcus aureus [2], 11 µM.

Consider `O=C(Nc1ccsc1)C1CN(c2cccc(Cl)c2)N(c2cccc(Cl)c2)C1=O` (stereo not given), for which the inhibition in series [1] is 24.7%. Moreover, the MIC with Escherichia coli and in the series with Staphylococcus aureus [2] was above 40 µM each time.

As to `CN1C(=O)C(C(=O)Nc2ncc(C#N)s2)CN1c1cccc(Cl)c1` (stereo not given), in series [1], the inhibition entry is “inactive”. The MIC in the series with Escherichia coli and in the series with Staphylococcus aureus [2] was above 40 µM throughout.
